Data set [1] concerns recombinant NL4-3 virus (Renilla luciferase) in MT-2 cells. Nature of the data set: HIV cell culture assay (antiviral activity, luciferase readout). In kind it is cell-based. The note with it: Renilla, NL43. In outline: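 MT-2 cells were infected with recombinant NL4-3 virus carrying Renilla luciferase in place of part of nef. Cells were cultured 4–5 days with serially diluted compound, and luciferase was measured with a live-cell substrate. EC50 was calculated from the median effect equation.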

A short description of data set [2]: Compound cytotoxicity, XTT-based colorimetric assay. Type of data set: cell-based. The note with it: human; uninfected MT2 cells, day 4, XTT. In outline: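 Run under the antiviral-assay protocol but without virus. Viability was read on day 4 and CC50 values were derived from the readout.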
For orientation: Tetrazolium assays rely on reduction of a dye to a coloured formazan, in cell work by metabolically active cells.

Each structure is given as a SMILES string.

A word on the EC50: it is the concentration at which the effect is half-maximal. Broadly, the CC50 is the concentration that lowers cell viability or growth by half. On to `Cn1nc(NS(C)(=O)=O)c2c(Cl)ccc(-n3c([C@H](Cc4cc(F)cc(F)c4)NC(=O)Cn4nc(C(F)F)c5c4C(F)(F)[C@@H]4C[C@H]54)nc4cc(-c5ccnc(C6CC6)n5)ccc4c3=O)c21` (atropisomer, axis not shown; (P)) [Example 78, N—((S)-1-((3P)-3-(4-chloro-1-methyl-3-(methylsulfonamido)-1H-indazol-7-yl)-7-(2-cyclopropylpyrimidin-4-yl)-4-oxo-3,4-dihydroquinazolin-2-yl)-2-(3,5-difluorophenyl)ethyl)-2-((3bS,4aR)-3-(difluoromethyl)-5,5-difluoro-3b,4,4a,5-tetrahydro-1H-cyclopropa[3,4]cyclopenta[1,2-c]pyrazol-1-yl)acetamide], for which the EC50 in data set [1] was 160 pM. This molecule gave a CC50 at 4 days in data set [2] above 500000 pM.
The matching figures for `Cn1nc(NS(C)(=O)=O)c2c(Cl)ccc(-n3c([C@H](Cc4cc(F)cc(F)c4)NC(=O)Cn4nc(C(F)F)c5c4C(F)(F)[C@@H]4C[C@H]54)nc4cc(-c5cc(C(F)(F)F)ccn5)ccc4c3=O)c21` (atropisomer, axis not shown; (P)) [Example 80, N—((S)-1-((3P)-3-(4-chloro-1-methyl-3-(methylsulfonamido)-1H-indazol-7-yl)-4-oxo-7-(4-(trifluoromethyl)pyridin-2-yl)-3,4-dihydroquinazolin-2-yl)-2-(3,5-difluorophenyl)ethyl)-2-((3bS,4aR)-3-(difluoromethyl)-5,5-difluoro-3b,4,4a,5-tetrahydro-1H-cyclopropa[3,4]cyclopenta[1,2-c]pyrazol-1-yl)acetamide]: 200 pM and above 100000 pM.
Consider `Cc1nccc(-c2ccc3c(=O)n(-c4ccc(Cl)c5c(NS(=O)(=O)C6CC6)nn(CC(F)F)c45)c([C@H](Cc4cc(F)cc(F)c4)NC(=O)Cn4nc(C(F)F)c5c4C(F)(F)[C@@H]4C[C@H]54)nc3c2)n1` (atropisomer, axis not shown; (P)) [Example 81, N—((S)-1-((3P)-3-(4-chloro-3-(cyclopropanesulfonamido)-1-(2,2-difluoroethyl)-1H-indazol-7-yl)-7-(2-methylpyrimidin-4-yl)-4-oxo-3,4-dihydroquinazolin-2-yl)-2-(3,5-difluorophenyl)ethyl)-2-((3bS,4aR)-3-(difluoromethyl)-5,5-difluoro-3b,4,4a,5-tetrahydro-1H-cyclopropa[3,4]cyclopenta[1,2-c]pyrazol-1-yl)acetamide], for which the EC50 in data set [1] was determined as 92 pM. In data set [2], this molecule registered a CC50 at 4 days above 500000 pM.
`CCc1cc(C)nc(-c2ccc3c(=O)n(-c4ccc(Cl)c5c(NS(=O)(=O)C6CC6)nn(CC(F)F)c45)c([C@H](Cc4cc(F)cc(F)c4)NC(=O)Cn4nc(C(F)F)c5c4C(F)(F)[C@@H]4C[C@H]54)nc3c2)n1` (atropisomer, axis not shown; (P)) [Example 82, N—((S)-1-((3P)-3-(4-chloro-3-(cyclopropanesulfonamido)-1-(2,2-difluoroethyl)-1H-indazol-7-yl)-7-(4-ethyl-6-methylpyrimidin-2-yl)-4-oxo-3,4-dihydroquinazolin-2-yl)-2-(3,5-difluorophenyl)ethyl)-2-((3bS,4aR)-3-(difluoromethyl)-5,5-difluoro-3b,4,4a,5-tetrahydro-1H-cyclopropa[3,4]cyclopenta[1,2-c]pyrazol-1-yl)acetamide]: in data set [1], the EC50 stood at 250 pM. Further, the CC50 at 4 days in data set [2] was above 500000 pM.
Take `Cc1cc(C)nc(-c2ccc3c(=O)n(-c4ccc(Cl)c5c(NS(=O)(=O)C6CC6)nn(CC(F)F)c45)c([C@H](Cc4cc(F)cc(F)c4)NC(=O)Cn4nc(C(F)F)c5c4C(F)(F)[C@@H]4C[C@H]54)nc3c2)c1` (atropisomer, axis not shown; (P)) [Example 83, N—((S)-1-((3P)-3-(4-chloro-3-(cyclopropanesulfonamido)-1-(2,2-difluoroethyl)-1H-indazol-7-yl)-7-(4,6-dimethylpyridin-2-yl)-4-oxo-3,4-dihydroquinazolin-2-yl)-2-(3,5-difluorophenyl)ethyl)-2-((3bS,4aR)-3-(difluoromethyl)-5,5-difluoro-3b,4,4a,5-tetrahydro-1H-cyclopropa[3,4]cyclopenta[1,2-c]pyrazol-1-yl)acetamide]: the EC50 in data set [1] was determined as 440 pM. The molecule further came in with a CC50 at 4 days in data set [2] above 500000 pM.
The matching figures for `O=C(Cn1nc(C(F)F)c2c1C(F)(F)[C@@H]1C[C@H]21)N[C@@H](Cc1cc(F)cc(F)c1)c1nc2cc(-c3nccc(C(F)(F)F)n3)ccc2c(=O)n1-c1ccc(Cl)c2c(NS(=O)(=O)C3CC3)nn(CC(F)F)c12` (atropisomer, axis not shown; (P)) [Example 84, N—((S)-1-((3P)-3-(4-chloro-3-(cyclopropanesulfonamido)-1-(2,2-difluoroethyl)-1H-indazol-7-yl)-4-oxo-7-(4-(trifluoromethyl)pyrimidin-2-yl)-3,4-dihydroquinazolin-2-yl)-2-(3,5-difluorophenyl)ethyl)-2-((3bS,4aR)-3-(difluoromethyl)-5,5-difluoro-3b,4,4a,5-tetrahydro-1H-cyclopropa[3,4]cyclopenta[1,2-c]pyrazol-1-yl)acetamide]: 220 pM and above 500000 pM.
The matching figures for `Cc1cc(-c2ccc3c(=O)n(-c4ccc(Cl)c5c(NS(=O)(=O)C6CC6)nn(CC(F)F)c45)c([C@H](Cc4cc(F)cc(F)c4)NC(=O)Cn4nc(C(F)F)c5c4C(F)(F)[C@@H]4C[C@H]54)nc3c2)nc(C)n1` (atropisomer, axis not shown; (P)) [Example 85, N—((S)-1-((3P)-3-(4-chloro-3-(cyclopropanesulfonamido)-1-(2,2-difluoroethyl)-1H-indazol-7-yl)-7-(2,6-dimethylpyrimidin-4-yl)-4-oxo-3,4-dihydroquinazolin-2-yl)-2-(3,5-difluorophenyl)ethyl)-2-((3bS,4aR)-3-(difluoromethyl)-5,5-difluoro-3b,4,4a,5-tetrahydro-1H-cyclopropa[3,4]cyclopenta[1,2-c]pyrazol-1-yl)acetamide]: 88 pM and above 500000 pM.
The matching figures for `O=C(Cn1nc(C(F)F)c2c1C(F)(F)[C@@H]1C[C@H]21)N[C@@H](Cc1cc(F)cc(F)c1)c1nc2cc(-c3nccc(C(F)F)n3)ccc2c(=O)n1-c1ccc(Cl)c2c(NS(=O)(=O)C3CC3)nn(CC(F)F)c12` (atropisomer, axis not shown; (P)) [Example 86, N—((S)-1-((3P)-3-(4-chloro-3-(cyclopropanesulfonamido)-1-(2,2-difluoroethyl)-1H-indazol-7-yl)-7-(4-(difluoromethyl)pyrimidin-2-yl)-4-oxo-3,4-dihydroquinazolin-2-yl)-2-(3,5-difluorophenyl)ethyl)-2-((3bS,4aR)-3-(difluoromethyl)-5,5-difluoro-3b,4,4a,5-tetrahydro-1H-cyclopropa[3,4]cyclopenta[1,2-c]pyrazol-1-yl)acetamide]: 78 pM and above 500000 pM.
Take `Cc1nnc(-c2ccc3c(=O)n(-c4ccc(Cl)c5c(NS(=O)(=O)C6CC6)nn(CC(F)F)c45)c([C@H](Cc4cc(F)cc(F)c4)NC(=O)Cn4nc(C(F)F)c5c4C(F)(F)[C@@H]4C[C@H]54)nc3c2)nc1C` (atropisomer, axis not shown; (P)) [Example 87, N—((S)-1-((3P)-3-(4-chloro-3-(cyclopropanesulfonamido)-1-(2,2-difluoroethyl)-1H-indazol-7-yl)-7-(5,6-dimethyl-1,2,4-triazin-3-yl)-4-oxo-3,4-dihydroquinazolin-2-yl)-2-(3,5-difluorophenyl)ethyl)-2-((3bS,4aR)-3-(difluoromethyl)-5,5-difluoro-3b,4,4a,5-tetrahydro-1H-cyclopropa[3,4]cyclopenta[1,2-c]pyrazol-1-yl)acetamide]: the concentration giving a half-maximal response (EC50) in data set [1] was determined as 58 pM. The molecule also yielded a CC50 at 4 days in data set [2] above 500000 pM.
For `Cc1ccc(-c2ccc3c(=O)n(-c4ccc(Cl)c5c(NS(=O)(=O)C6CC6)nn(CC(F)F)c45)c([C@H](Cc4cc(F)cc(F)c4)NC(=O)Cn4nc(C(F)F)c5c4C(F)(F)[C@@H]4C[C@H]54)nc3c2)nn1` (atropisomer, axis not shown; (P)) [Example 88, N—((S)-1-((3P)-3-(4-chloro-3-(cyclopropanesulfonamido)-1-(2,2-difluoroethyl)-1H-indazol-7-yl)-7-(6-methylpyridazin-3-yl)-4-oxo-3,4-dihydroquinazolin-2-yl)-2-(3,5-difluorophenyl)ethyl)-2-((3bS,4aR)-3-(difluoromethyl)-5,5-difluoro-3b,4,4a,5-tetrahydro-1H-cyclopropa[3,4]cyclopenta[1,2-c]pyrazol-1-yl)acetamide], in data set [1], the EC50 came to 58 pM. The same molecule registered a CC50 at 4 days in data set [2] above 500000 pM.
Regarding `O=C(Cn1nc(C(F)F)c2c1C(F)(F)[C@@H]1C[C@H]21)N[C@@H](Cc1cc(F)cc(F)c1)c1nc2cc(-c3cccnn3)ccc2c(=O)n1-c1ccc(Cl)c2c(NS(=O)(=O)C3CC3)nn(CC(F)F)c12` (atropisomer, axis not shown; (P)) [Example 89, N—((S)-1-((3P)-3-(4-chloro-3-(cyclopropanesulfonamido)-1-(2,2-difluoroethyl)-1H-indazol-7-yl)-4-oxo-7-(pyridazin-3-yl)-3,4-dihydroquinazolin-2-yl)-2-(3,5-difluorophenyl)ethyl)-2-((3bS,4aR)-3-(difluoromethyl)-5,5-difluoro-3b,4,4a,5-tetrahydro-1H-cyclopropa[3,4]cyclopenta[1,2-c]pyrazol-1-yl)acetamide], the EC50 in data set [1] came to 75 pM. The CC50 at 4 days in data set [2] was above 500000 pM.

Source of the values: patent US11541055B2, “Inhibitors of human immunodeficiency virus replication” (ViiV Healthcare UK (No. 5) LIMITED, priority 2018, dated 2023).
